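Cultured in 96-well plates, cells were exposed to test compound for 48 hours across five concentrations. GI50 marks 50% less growth. The concentration for full growth arrest is given as TGI.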

These results are taken from PubChem BioAssay (NCI).

What all share (assay): growth of human tumour cells (NCI), 48 h
For experiment [1], the system named is RXF 393 renal.
Experiment [2] concerns SF-295 CNS.
For experiment [3], the system named is IGROV1 ovarian.
The test system of experiment [4] is SN12C renal.
The test system of experiment [5] is NCI-H23 lung.
The test system of experiment [6] is CAKI-1 renal.
For experiment [7], the system named is CCRF-CEM leukemia.
Experiment [8] deals with DU-145 prostate.
The test system of experiment [9] is SR leukemia.
Experiment [10] concerns NCI/ADR-RES ovarian.

Regarding `COc1cc(C2C(C(=O)O)=C(COC(C)=O)Oc3cc4c(cc32)OCO4)cc(OC)c1OC` (stereo not drawn), the TGI in experiment [1], in [2], in [3], in [4], in [5] and in [6] was above 100 µM in each case. This molecule registered a TGI in experiment [7] above 100 µM.
`O=C1/C(=C/c2ccc(Cl)cc2)N=C(c2ccccc2)N1CCc1cccs1`: the GI50 in experiment [1] was 23.3 µM; in experiment [2], 17.7 µM; in experiment [8], 42.7 µM; in [9], 24.2 µM; in experiment [3], 36.7 µM; in experiment [4], 21.1 µM. The GI50 in [5] was 20 µM; in experiment [6], 20.4 µM; in experiment [7] it was 22.7 µM; in [10], 23.7 µM. Further, the TGI in experiment [1], in experiment [2], in experiment [8], in [9], in experiment [3] and in experiment [4] was above 100 µM in each case. In addition, the TGI in [5], in experiment [6], in experiment [7] and in experiment [10] was above 100 µM throughout.
For `N=C(N)SCc1ccc(Cl)cc1Cl` (tested in a mixture with another compound), the TGI in [1] is 27.9 µM; in [2] it was 31.3 µM; in experiment [8], 29.8 µM; in [9], 22.8 µM; in experiment [3], 42.9 µM; in experiment [4], 27 µM. Moreover, the TGI in experiment [5] amounted to 32.4 µM; in [6], 24.2 µM; in experiment [7], 15.5 µM; in [10], 73.9 µM.
`CCCCCCOP(=O)(OCCCCCC)C(NC(=O)OCC)(C(F)(F)F)C(F)(F)F`: the TGI in [1] is 76.9 µM; in experiment [2] it was above 100 µM; in [8], above 100 µM; in experiment [9] it was above 100 µM; in experiment [3], above 100 µM; in experiment [4], above 100 µM. The TGI in experiment [6], in experiment [7] and in experiment [10] was above 100 µM in each case.
Regarding `CO/N=C(\C)COc1ccc2c(=O)c(-c3ccccc3)coc2c1`, the GI50 in experiment [1] was 27.1 µM; in experiment [2] it was 31.9 µM; in [8] it was 23.1 µM; in [3], 24.7 µM; in experiment [4] it was 30.1 µM; in experiment [5], 26.4 µM. Moreover, the GI50 in experiment [7] is above 100 µM; in [10] it was 14.5 µM. In addition, the TGI in experiment [1] worked out at 57.8 µM; in experiment [2], 65.2 µM; in [8], 52.7 µM; in experiment [3], 77.9 µM; in experiment [4], 68.9 µM; in [5], 89 µM. Moreover, the TGI was above 100 µM in [7] and 50 µM in experiment [10].
As to `CN(C)c1ccc(C(Cc2ccc3ccccc3n2)Cc2ccc3ccccc3n2)cc1`, the GI50 is 3.48 µM in experiment [1]; 3.26 µM in [2]; above 100 µM in [8]; 2.57 µM in experiment [3]; 2.2 µM in experiment [6]. The TGI in experiment [1] is 9.11 µM; in experiment [2], above 100 µM; in experiment [8], above 100 µM; in [3], above 100 µM; in experiment [6], above 100 µM.
As to `CCOC(=O)C(O)(NC(=O)c1ccccc1F)C(F)(F)F` (stereo not drawn), the TGI in experiment [1], in experiment [2], in experiment [8], in experiment [9], in [3] and in experiment [4] was above 100 µM throughout. Further, the TGI in [5], in experiment [6], in [7] and in experiment [10] was above 100 µM in each case.
`CC(C)C1=CCC2C(=C1)CCC1C(C)(C(=O)O)CCCC21C` (stereo not drawn) (tested in a mixture with another compound): the TGI in experiment [1], in [2], in experiment [8], in experiment [9], in [3] and in experiment [4] was above 100 µM each time. Besides, the TGI in experiment [5], in experiment [6], in experiment [7] and in [10] was above 100 µM in each case.
`O=C(O)c1cn2c3c(cc(N4CCN(CCO)CC4)cc3c1=O)SCC2`: the TGI in experiment [1], in experiment [2], in experiment [3], in experiment [4], in [5] and in experiment [6] was above 100 µM each time. Moreover, the TGI in experiment [7] and in [10] was above 100 µM each time.
As to `CNC(=O)N(C)COC`, the TGI in [2], in [9], in experiment [3], in [4], in experiment [6] and in experiment [7] was above 100 µM throughout.
As for `Cc1c2cnccc2c(C)c2c1c1ccccc1n2CCCCCCNCc1ccccc1`, the TGI amounted to 4.08 µM in experiment [1]; 3.47 µM in experiment [2]; 3.85 µM in experiment [3]; 3.27 µM in [4]; 3.64 µM in experiment [5]; 3.48 µM in experiment [6]. This molecule also yielded a TGI in [7] of 5.13 µM.
